# Test results as given in US20240316023A1, “BENEDIN, PIPERIDINE, 2-BENZHYDRYL-3-HYDROXY-N-METHYL-, HYDROCHLORIDE AND DERIVATIVES THEREOF FOR USE IN TREATING KLEINE-LEVIN SYNDROME” (priority 2021, published 2024).
# Tests used:
# [1] = system: Mice, C57BL/6J, male; experiment: Novel object recognition (NOR) test, long-term memory; type: in vivo; settings: donepezil 2 mg/kg i.p.; 3-days interval
# Protocol: Long-term episodic memory was tested in the NOR test, using a 3-days interval between the acquisition session (called sample trial) and the retention session (called choice trial). This method allows to detect an improvement of memory in the natural forgetting condition:
# The test was carried out in circular boxes (30 cm diameter, 40 cm high). The objects to be discriminated (L≈1≈h≈3-4 cm) differed in both color and shape and were referred as yellow duck and blue lego. They were fixed with a magnet to the floor of the boxes at 5 cm of the wall, 20 cm distant. Apparently, they have no natural significance for mice and they have never been associated with a reinforcement. In order to rule out the possibility of scent traces left on the objects and therefore the dependency of the recognition capacity of mice on the olfactory cue, the objects and the ground of the box were washed with an odorless disinfectant (Sanicid® diluted in water) and dried between each trial. A camcorder was fixed to the ceiling above the box to record the animals' activity. The experiment was analyzed blindly at a later time.
# On the week before the test, animals were handled by the experimenter in charge of the experiment in order to be not stressed at the time of testing. For this purpose, the experimenter placed a small amount of litter, and then the mouse on its hand. […] The NOR test was completed over five days (see FIG. 1): • Day 1: Habituation trial. Animals were individually placed for a 15-min free exploration session in empty open boxes. • Day 2. Treatment administration and sample trial. […] They were individually placed 30 min after in the apparatus for a 6-min session with two identical objects (Duck, 50% of animals or Lego, 50% of animals). • […]. […]. The mice were individually placed for a 6-min session in the apparatus with two objects (Duck and Lego), one of the objects presented in sample trials (termed as familiar objects) and a novel object (Lego, 50% of animals or Duck, 50% of animals).
# The sample and choice trials were recorded with the camera located above the apparatus. The time spent by mice in exploring the objects was measured during the sample trial and the choice trial.
# Exploration of an object was defined as follows: directing the nose to the object at a distance≤2 cm and/or touching it with the nose or forelimbs: turning around or biting the object, or sitting on the object were not considered as exploratory behavior.
# Data recorded: • L=exploration time of the left object in the sample trial. • R=exploration time of the right object in the sample trial. • N=exploration time of the new object in the choice trial. • F=exploration time of the familiar object in the choice trial. Object recognition task indices include the following parameters: • Exploration indices: • ST=L+R=exploration time (left object+right object) in the sample trial. • CT=N+F=exploration time (new object+familiar object) in the choice trial. • Two memory indices: • N−F=difference of exploration time between the new object and the familiar object in the choice trial.
# Statistical analyses: • Read-outs: DI, N−F, ST, CT, N, F • Unpaired Student's t test: Donep 2 group vs. Control group. • One-way ANOVA, Dunnett test: • Benedin groups vs. Control group. • Benedin groups vs. Donep 2 group. • Read-outs: DI and N−F, for all groups, paired Student's t test, difference vs. 0. • Body weight: one-way ANOVA.
# [2] = system: patients with frequent episodes of KLS; settings: compared to rest of stimulants; cited from earlier work
Molecule,"recognition of the familiar object, i.e. memory [1]",response (reducing the number of episodes) [2]
Donepezil hydrochloride [reference compound],improved the recognition of the familiar object,
NC12CC3CC(CC(C3)C1)C2 [Amantadine],,41%
